Results: ChEMBL document CHEMBL1148674, “Morpholin-2-one derivatives as novel selective T-type Ca2+ channel blockers” (Bioorg Med Chem Lett, 2006)
pIC50: −log10 of the molar value.

Assays:
[1] = target: T1, Voltage-dependent T-type calcium channel subunit alpha-1G (Homo sapiens, UniProt O43497); experiment: Ability to block calcium channel T type 3.1v expressed in HEK293 cells at 10 uM by whole cell patch clamp method; format: functional, cell-based
[2] = target: T1, Voltage-dependent T-type calcium channel subunit alpha-1G; experiment: Ability to block calcium channel T type 3.1v expressed in HEK293 cells by whole cell patch clamp method; format: functional, cell-based
[3] = target: Voltage-dependent T-type calcium channel subunit alpha-1H (Homo sapiens) (UniProt O95180); experiment: Ability to block calcium channel T type 3.2v expressed in Xenopus oocytes at 100 uM by two-microelectrode voltage-clamp method; format: functional, cell-based; conditions: Oocyte
[4] = target: Voltage-dependent N-type calcium channel subunit alpha-1B (Homo sapiens) (UniProt Q00975); experiment: Ability to block calcium channel N type 2.2v expressed in HEK293 cells at 10 uM by whole cell patch clamp method; format: functional, cell-based
Sequence of Voltage-dependent N-type calcium channel subunit alpha-1B (Homo sapiens) (Q00975 whole entry, looked up): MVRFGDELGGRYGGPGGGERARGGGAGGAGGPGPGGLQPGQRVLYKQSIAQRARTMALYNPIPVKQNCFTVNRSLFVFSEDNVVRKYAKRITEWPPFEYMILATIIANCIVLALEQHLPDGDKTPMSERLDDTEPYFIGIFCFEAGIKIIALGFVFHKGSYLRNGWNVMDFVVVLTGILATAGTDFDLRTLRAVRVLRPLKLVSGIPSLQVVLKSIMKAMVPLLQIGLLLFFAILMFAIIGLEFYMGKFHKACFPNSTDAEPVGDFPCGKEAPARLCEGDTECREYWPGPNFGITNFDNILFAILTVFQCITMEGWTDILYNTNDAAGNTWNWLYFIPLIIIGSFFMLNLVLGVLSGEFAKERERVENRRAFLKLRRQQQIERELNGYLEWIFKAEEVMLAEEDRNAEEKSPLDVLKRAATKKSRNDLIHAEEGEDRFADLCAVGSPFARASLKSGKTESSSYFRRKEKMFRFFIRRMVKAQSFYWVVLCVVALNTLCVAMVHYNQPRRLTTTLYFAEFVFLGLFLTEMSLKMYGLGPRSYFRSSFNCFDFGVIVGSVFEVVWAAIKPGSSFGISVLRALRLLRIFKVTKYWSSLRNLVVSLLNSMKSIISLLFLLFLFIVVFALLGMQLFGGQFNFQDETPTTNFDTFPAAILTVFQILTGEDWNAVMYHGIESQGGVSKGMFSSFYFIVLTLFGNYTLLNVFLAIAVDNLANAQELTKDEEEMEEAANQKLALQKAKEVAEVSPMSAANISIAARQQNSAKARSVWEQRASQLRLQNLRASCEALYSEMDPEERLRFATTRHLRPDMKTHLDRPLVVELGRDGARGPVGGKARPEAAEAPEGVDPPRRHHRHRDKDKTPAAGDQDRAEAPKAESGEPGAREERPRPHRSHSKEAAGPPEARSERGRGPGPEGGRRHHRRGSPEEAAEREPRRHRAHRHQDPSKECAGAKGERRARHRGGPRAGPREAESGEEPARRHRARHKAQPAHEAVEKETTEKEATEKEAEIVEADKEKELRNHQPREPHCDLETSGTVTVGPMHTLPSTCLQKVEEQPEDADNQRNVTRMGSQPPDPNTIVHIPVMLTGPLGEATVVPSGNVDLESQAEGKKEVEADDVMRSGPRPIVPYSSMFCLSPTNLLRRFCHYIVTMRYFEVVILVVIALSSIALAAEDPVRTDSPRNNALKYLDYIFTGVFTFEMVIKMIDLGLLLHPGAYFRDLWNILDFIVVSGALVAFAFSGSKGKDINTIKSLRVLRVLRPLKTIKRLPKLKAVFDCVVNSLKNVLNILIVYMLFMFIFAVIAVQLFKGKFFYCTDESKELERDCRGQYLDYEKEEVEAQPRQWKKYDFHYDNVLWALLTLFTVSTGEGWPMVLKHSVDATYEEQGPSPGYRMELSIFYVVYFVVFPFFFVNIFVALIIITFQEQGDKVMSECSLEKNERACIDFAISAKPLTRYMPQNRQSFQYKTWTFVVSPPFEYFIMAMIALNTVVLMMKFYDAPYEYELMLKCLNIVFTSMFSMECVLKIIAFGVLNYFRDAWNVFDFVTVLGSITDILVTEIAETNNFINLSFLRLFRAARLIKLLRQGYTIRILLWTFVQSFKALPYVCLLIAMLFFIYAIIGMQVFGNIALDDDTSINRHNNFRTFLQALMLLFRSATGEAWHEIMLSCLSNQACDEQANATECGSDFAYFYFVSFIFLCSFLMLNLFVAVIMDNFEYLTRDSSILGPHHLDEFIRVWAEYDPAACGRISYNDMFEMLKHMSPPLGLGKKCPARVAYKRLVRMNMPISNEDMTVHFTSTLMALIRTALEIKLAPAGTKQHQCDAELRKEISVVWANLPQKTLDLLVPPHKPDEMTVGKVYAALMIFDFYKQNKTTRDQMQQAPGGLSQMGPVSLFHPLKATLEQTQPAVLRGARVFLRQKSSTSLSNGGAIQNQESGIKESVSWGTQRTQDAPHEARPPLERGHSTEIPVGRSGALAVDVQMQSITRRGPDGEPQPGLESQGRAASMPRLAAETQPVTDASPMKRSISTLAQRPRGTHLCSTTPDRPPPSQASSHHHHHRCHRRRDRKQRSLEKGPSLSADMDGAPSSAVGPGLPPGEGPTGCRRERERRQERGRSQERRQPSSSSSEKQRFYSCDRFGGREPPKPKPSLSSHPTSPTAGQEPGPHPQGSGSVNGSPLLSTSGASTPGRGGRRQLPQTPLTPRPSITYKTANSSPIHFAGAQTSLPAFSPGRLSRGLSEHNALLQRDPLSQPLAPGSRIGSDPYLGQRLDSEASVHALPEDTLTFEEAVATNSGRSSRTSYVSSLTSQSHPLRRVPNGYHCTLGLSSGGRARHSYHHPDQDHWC

Homo sapiens = organism: Homo sapiens; experiment: Selectivity for calcium channel N type 2.2v over calcium channel T type 3.1v; format: functional

T1 sequence (O43497 whole entry): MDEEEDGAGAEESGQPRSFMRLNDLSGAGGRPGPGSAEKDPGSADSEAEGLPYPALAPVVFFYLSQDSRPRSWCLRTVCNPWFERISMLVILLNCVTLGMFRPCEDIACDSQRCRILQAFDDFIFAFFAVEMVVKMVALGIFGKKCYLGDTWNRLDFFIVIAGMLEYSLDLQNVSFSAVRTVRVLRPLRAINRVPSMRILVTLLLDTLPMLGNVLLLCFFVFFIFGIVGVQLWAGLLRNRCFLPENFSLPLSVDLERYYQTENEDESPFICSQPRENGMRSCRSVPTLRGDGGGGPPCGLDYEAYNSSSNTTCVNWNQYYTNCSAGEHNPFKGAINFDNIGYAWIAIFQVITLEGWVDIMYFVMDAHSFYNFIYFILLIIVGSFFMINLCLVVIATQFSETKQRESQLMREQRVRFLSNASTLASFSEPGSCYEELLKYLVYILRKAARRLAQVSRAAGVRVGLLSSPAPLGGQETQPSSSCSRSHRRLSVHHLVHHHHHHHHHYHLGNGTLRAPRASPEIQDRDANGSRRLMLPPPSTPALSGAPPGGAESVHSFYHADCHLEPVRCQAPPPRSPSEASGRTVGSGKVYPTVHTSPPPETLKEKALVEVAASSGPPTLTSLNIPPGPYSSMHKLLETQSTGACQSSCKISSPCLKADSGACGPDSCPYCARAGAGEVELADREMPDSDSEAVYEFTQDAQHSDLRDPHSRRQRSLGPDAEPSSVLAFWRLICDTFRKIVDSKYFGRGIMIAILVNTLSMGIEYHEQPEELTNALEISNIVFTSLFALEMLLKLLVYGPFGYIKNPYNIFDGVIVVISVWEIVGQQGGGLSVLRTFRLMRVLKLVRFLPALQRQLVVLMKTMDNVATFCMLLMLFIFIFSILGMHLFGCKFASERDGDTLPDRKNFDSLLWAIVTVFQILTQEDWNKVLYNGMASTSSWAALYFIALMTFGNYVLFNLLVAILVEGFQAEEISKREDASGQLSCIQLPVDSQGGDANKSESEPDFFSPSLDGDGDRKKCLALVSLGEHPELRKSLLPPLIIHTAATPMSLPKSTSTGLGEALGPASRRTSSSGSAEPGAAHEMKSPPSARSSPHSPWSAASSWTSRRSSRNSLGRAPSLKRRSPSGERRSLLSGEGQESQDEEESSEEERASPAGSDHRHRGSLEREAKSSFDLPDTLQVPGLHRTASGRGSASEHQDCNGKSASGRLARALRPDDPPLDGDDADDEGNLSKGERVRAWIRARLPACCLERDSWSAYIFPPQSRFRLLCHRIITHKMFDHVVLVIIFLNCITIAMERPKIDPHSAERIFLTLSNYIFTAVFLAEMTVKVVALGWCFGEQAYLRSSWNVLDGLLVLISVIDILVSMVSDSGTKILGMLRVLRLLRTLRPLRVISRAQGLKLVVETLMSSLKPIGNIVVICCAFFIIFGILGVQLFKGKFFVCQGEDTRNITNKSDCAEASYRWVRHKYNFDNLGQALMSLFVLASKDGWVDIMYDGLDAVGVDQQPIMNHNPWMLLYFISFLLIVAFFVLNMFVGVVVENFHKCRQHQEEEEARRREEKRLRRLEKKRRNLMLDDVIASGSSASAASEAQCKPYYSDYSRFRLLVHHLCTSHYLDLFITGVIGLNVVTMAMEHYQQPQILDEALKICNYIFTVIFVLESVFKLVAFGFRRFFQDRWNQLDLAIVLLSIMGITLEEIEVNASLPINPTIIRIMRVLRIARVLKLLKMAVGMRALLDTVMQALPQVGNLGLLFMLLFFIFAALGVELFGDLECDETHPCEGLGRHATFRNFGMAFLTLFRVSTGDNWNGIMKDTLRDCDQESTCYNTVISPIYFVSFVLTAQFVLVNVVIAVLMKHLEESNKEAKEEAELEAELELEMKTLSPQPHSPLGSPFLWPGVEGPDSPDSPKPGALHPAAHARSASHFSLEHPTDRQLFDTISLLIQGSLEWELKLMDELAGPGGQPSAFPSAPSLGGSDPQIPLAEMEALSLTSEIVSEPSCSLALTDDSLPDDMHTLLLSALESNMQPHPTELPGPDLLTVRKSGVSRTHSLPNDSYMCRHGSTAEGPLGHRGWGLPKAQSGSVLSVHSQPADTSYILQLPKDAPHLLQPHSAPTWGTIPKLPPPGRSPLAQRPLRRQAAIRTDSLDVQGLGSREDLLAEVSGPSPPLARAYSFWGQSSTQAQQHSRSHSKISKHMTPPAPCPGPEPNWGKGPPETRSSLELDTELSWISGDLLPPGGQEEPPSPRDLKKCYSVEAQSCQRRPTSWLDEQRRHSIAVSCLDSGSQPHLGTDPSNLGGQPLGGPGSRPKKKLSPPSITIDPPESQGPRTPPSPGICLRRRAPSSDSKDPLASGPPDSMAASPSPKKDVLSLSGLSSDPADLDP

inhibition [1] [%]	pIC50 [2]	inhibition [3] [%]	inhibition [4] [%]	Compound	Ratio (Homo sapiens)
74	5.69	54.6	2.5	COc1ccc(C[C@@H]2N[C@H](C(=O)NCc3ccccc3)COC2=O)cc1 (relative stereo)	29.6
80.2	5.67	60.8	4	C[C@H](NC(=O)[C@@H]1COC(=O)[C@H](Cc2ccc([N+](=O)[O-])cc2)N1)c1ccccc1	20.1
		43		CC(C)(C)NC(=O)[C@@H]1COC(=O)[C@H](Cc2ccccc2)N1 (relative stereo)	
		25.2		C[C@H](NC(=O)[C@H]1COC(=O)[C@H](Cc2ccc([N+](=O)[O-])cc2)N1)c1ccccc1	
		13		Cc1ccc(S(=O)(=O)CNC(=O)[C@@H]2COC(=O)[C@H](Cc3ccccc3)N2)cc1 (relative stereo)	
		16.2		COc1ccc(C[C@@H]2N[C@@H](C(=O)NCc3ccccc3)COC2=O)cc1 (relative stereo)	
73.6	5.66	76	9.4	O=C(NC1CCCCC1)[C@@H]1COC(=O)[C@H](Cc2ccccc2)N1 (relative stereo)	7.8
89.8			57.4	COCC(=O)O[C@]1(CCN(C)CCCc2nc3ccccc3[nH]2)CCc2cc(F)ccc2[C@@H]1C(C)C	
		42		CC(C)(C)NC(=O)[C@H]1COC(=O)[C@H](Cc2ccccc2)N1 (relative stereo)	
		6.5		O=C1OC[C@H](C(=O)NCc2ccccc2)N[C@H]1Cc1ccc([N+](=O)[O-])cc1 (relative stereo)	
63.4	5.91	70	1.7	CCC(C)[C@@H]1N[C@H](C(=O)NCc2ccccc2)COC1=O (stereo not given in full)	37.3
79	5.88	73.3	4	C[C@H](NC(=O)[C@H]1COC(=O)[C@H](Cc2ccc(Cl)cc2)N1)c1ccccc1	19.8
80.8	5.83	83.6	11.3	C[C@H](NC(=O)[C@H]1COC(=O)[C@H](Cc2ccc(F)cc2)N1)c1ccccc1	7.2
77	5.86	45.8	4.7	C[C@H](NC(=O)[C@@H]1COC(=O)[C@H](Cc2ccc(O)cc2)N1)c1ccccc1	16.4
75.1	5.73	74	15.4	CSCC[C@@H]1N[C@H](C(=O)NCc2ccccc2)COC1=O (relative stereo)	4.9
77.6	5.56	70.9	7.1	O=C(NCc1ccccc1)[C@@H]1COC(=O)[C@H](Cc2ccc(F)cc2)N1 (relative stereo)	10.9
		19.1		O=C1OC[C@H](C(=O)NCc2ccccc2)N[C@H]1Cc1ccc(Cl)cc1 (relative stereo)	
78.9	6.00	87	4.8	O=C(NCc1ccccc1)[C@@H]1COC(=O)[C@H](Cc2ccccc2)N1 (relative stereo)	16.4
		25		Cc1ccc(S(=O)(=O)CNC(=O)[C@H]2COC(=O)[C@H](Cc3ccccc3)N2)cc1 (relative stereo)	
		5		O=C1OC[C@H](C(=O)NCc2ccccc2)N[C@H]1Cc1ccccc1 (relative stereo)	
64	5.79	48.4	10.9	C[C@H](NC(=O)[C@@H]1COC(=O)[C@H](Cc2ccc(Cl)cc2)N1)c1ccccc1	5.9
		30.3		O=C1OC[C@H](C(=O)NC2CCCCC2)N[C@H]1Cc1ccccc1 (relative stereo)	
78.8	6.00	82	25.3	CC(C)[C@@H]1N[C@H](C(=O)NCc2ccccc2)COC1=O (relative stereo)	3.1
		35.6		C[C@H](NC(=O)[C@@H]1COC(=O)[C@H](Cc2ccc(F)cc2)N1)c1ccccc1	
86.2	5.95	74.8	7.6	O=C(NCc1ccccc1)[C@@H]1COC(=O)[C@H](Cc2ccc([N+](=O)[O-])cc2)N1 (relative stereo)	11.3
83.6	6.35	73.5	33.7	O=C(NCc1ccccc1)[C@@H]1COC(=O)[C@H](Cc2ccc(Cl)cc2)N1 (relative stereo)	2.5
		12.3		O=C1OC[C@H](C(=O)NCc2ccccc2)N[C@H]1Cc1ccc(F)cc1 (relative stereo)	
		27.6		C[C@H](NC(=O)[C@H]1COC(=O)[C@H](Cc2ccc(O)cc2)N1)c1ccccc1	
